Marks after values point to notes of the source that are not given here.
How the values were obtained:
KOP receptor [1] = molecular target: T1, KOP receptor (Homo sapiens, UniProt P41145); assay: 35S-GTPγS coupling, inhibition; type: biochemical
KOP receptor [2] = molecular target: T1, KOP receptor; assay: ERK 1/2 activation, inhibition; type: cell-based
KOR [3] = molecular target: T2, KOR (Homo sapiens, UniProt P41145); assay: High content imaging β-arrestin translocation assay, KOR antagonist (KOR HCS); type: cell-based; conditions: antagonist; average; read-out: Potency, Target KOR HCS
Text: (§1) In this campaign, two assay platforms were employed to evaluate KOR activity and selectivity: the KOR1 DISCOVERX β-Arrestin […] assay and an imaging based β-arrestin translocation assay for confirmatory and selectivity assays. The KOR1 DISCOVERX β-Arrestin […] assay is a commercial platform for direct measurement of GPCR (G protein-coupled receptor) activation by detection of β-Arrestin binding to the KOR. […] In cells that stably express these fusion proteins, ligand stimulation results in the recruitment of β-Arrestin by the GPCR. This interaction encourages the complementation of the two β-galactosidase fragments resulting in the formation of a functional enzyme that converts substrate in the assay medium to a detectable signal. The imaging based high-content β-arrestin translocation assay is based upon the redistribution of β-Arrestin linked to green fluorescent protein (GFP) to the cell surface and detection (Barak, et al. (1997) J. Biol. Chem. 272:27497-27500).
(§2) Initially, a portion (approximately 290,000 compounds) of the MLSMR compound collection was tested in the KOR1 DISCOVERX β-arrestin primary kappa opioid (KOP) agonist and antagonist screens (PUBCHEM AID 1777 and 1778, respectively) at a single concentration point (10 μM). […] These compounds were concurrently tested in a β-galactosidase counterscreen assay (PUBCHEM AID 1966) to assess the possibility that these compounds might inhibit the reporting enzyme. […] The KOR:DOR:MOR selectivity of the compounds was determined using the analogous β-arrestin translocation assays for the DOR (PUBCHEM AID 2370 and 2357, for agonists and antagonist, respectively) and the MOR (PUBCHEM AID 2352 and 2420, for agonists and antagonists, respectively).

KOR [4] = molecular target: T2, KOR; assay: KOR1 DISCOVERX β-Arrestin […] assay, antagonist mode (KOR DRX); type: cell-based; conditions: antagonist; average; read-out: Potency, Target KOR DRX
Text: as §1, §2

MOR = MOR (Homo sapiens, UniProt P35372); assay: High content imaging β-arrestin translocation assay, MOR antagonist (MOR HCS); type: cell-based
Text: as §1, §2

DOR = DOR (Homo sapiens, UniProt P41143); assay: High content imaging β-arrestin translocation assay, DOR antagonist (DOR HCS); type: cell-based
Text: as §1, §2

T1 sequence (P41145 whole entry): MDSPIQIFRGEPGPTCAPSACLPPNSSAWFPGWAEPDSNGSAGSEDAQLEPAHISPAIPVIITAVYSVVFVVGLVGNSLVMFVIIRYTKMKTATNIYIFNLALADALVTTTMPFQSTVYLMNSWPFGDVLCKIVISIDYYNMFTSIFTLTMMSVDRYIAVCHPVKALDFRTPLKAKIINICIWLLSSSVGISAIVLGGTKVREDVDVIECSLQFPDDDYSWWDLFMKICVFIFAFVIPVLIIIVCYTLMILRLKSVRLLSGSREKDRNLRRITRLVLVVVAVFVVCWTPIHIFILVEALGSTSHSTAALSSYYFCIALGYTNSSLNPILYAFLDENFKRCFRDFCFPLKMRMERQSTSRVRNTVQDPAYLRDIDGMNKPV
T2 sequence (P41145 whole entry, the tested form may be a part): as the sequence (P41145 whole entry) above
Chain of MOR (P35372 whole entry): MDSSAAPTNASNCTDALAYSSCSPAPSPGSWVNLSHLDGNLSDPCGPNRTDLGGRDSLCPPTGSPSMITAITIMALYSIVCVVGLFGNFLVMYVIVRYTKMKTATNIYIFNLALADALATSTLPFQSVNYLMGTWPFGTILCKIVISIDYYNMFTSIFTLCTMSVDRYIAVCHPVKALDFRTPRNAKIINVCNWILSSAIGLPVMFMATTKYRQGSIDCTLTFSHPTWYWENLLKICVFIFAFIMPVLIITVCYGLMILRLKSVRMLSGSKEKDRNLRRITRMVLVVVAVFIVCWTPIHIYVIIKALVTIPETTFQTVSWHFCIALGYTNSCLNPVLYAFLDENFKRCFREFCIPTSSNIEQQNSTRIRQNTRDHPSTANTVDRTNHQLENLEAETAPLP
Chain of DOR (P41143 whole entry): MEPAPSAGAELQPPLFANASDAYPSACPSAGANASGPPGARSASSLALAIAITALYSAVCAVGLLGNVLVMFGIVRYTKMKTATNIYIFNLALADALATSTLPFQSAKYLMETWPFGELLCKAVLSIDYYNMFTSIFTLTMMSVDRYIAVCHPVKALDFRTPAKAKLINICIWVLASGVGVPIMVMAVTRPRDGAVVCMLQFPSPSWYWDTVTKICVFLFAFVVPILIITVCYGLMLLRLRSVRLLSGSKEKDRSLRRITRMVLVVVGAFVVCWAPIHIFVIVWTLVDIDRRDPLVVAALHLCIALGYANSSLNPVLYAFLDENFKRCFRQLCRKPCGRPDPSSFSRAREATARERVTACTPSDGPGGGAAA

For `COc1ccc(N2CCN(CCCNC(=O)Cn3c(=O)c4cccn4c4ccccc43)CC2)cc1` [Compound 1{1}], which “Imax (% NBNI)” value (KOP receptor [1]) is on record?
Its value is 122 ± 5^a % NBNI.

What about the IC50 (KOP receptor [1]; n ≧ 3 curves in duplicate) of the same molecule?
The IC50 was 95.7 ± 48 nM.

What about the “Imax (% NBNI)” value (KOP receptor [2]) of the same molecule?
Its value is 101 ± 3^ % NBNI.

And the IC50 (KOP receptor [2]; n ≧ 3 curves, replicates of 6)?
The IC50 was 65 ± 9.2 nM.

What about the IC50 (KOR [3]) of the same molecule?
Its IC50 is 1310 nM.

And the IC50 (KOR [4])?
The IC50 was 1970 nM.

And the IC50 (MOR)?
The IC50 was > 32000 nM.

What about the IC50 (DOR) of the same molecule?
The IC50 was > 32000 nM.

From patent US9345703B2, “Kappa opioid receptor effectors and uses thereof” (University of Kansas, priority 2011, dated 2016)
